Test results published in patent US20110098309A1, “METHODS OF INHIBITING THE FORMATION OF AMYLOID-BETA DIFFUSABLE LIGANDS USING ACYLHYDRAZIDE COMPOUNDS” (priority 2007, published 2011).

biological target: Aβ1-42 (Homo sapiens, UniProt P05067); assay: FRET assay of Aβ1-42 oligomer (ADDL) assembly inhibition; format: biochemical; conditions: 0.2 μM FITC-Aβ(1-42) and 0.8 μM Aβ(1-42), 37° C., six concentrations from about 10 μM to about 0.03 μM
Source text: Fluorescence (or Förster) Resonance Energy Transfer (FRET) is a distance-dependent, non-radiative transfer of energy in which the de-excitation of one fluorophore (donor) is coupled to excitation of another fluorophore (acceptor). FRET occurs if (1) the quantum of energy emitted by a donor fluorophore corresponds to an acceptor fluorophore's excitation energy, (2) the orientations of donor and acceptor transition dipoles are nearly parallel and (3) the donor fluorescent emission spectrum overlaps the acceptor absorption spectrum.
In this assay, assembly of Aβ1-42 oligomer formation is monitored by FRET using N-terminal conjugates of fluorescein-Aβ1-42 as both the donor and acceptor fluorophore (fluorescein-fluorescein Ro˜45 Å). […] Inhibition of Aβ1-42 assembly is observed as the absence or attenuation of fluorescein quenching.
FRET and FP assays are performed in 384-well Corning Non-Binding Surface, black, opaque microtiter plates, and the assay buffer consists of 25 mM MOPS-Tris (pH 8.0) with 100 mM MgCl2. The assay volume, containing 0.2 μM FITC-Aβ(1-42) and 0.8 μM Aβ(1-42), is 50 μl and the temperature is 37° C. […] Kinetic traces are collected by recording fluorescence intensity and polarization readings every five minutes over about a three hour time course. […] Positive control reactions contain all buffer components in the absence of added small molecule or antibody reagents. To test for ADDL assembly inhibition, the compound was incubated with the peptide mixture at six concentrations from about 10 μM decreasing to about 0.03 μM.

Aβ1-42, sequence (P05067 672-713 limits assumed): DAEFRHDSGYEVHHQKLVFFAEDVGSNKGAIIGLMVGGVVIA

SMILES	IC50
O=C(N/N=C/c1ccc2ccccc2c1O)c1ccccc1O [Compound 72, 2-hydroxy-N′-((1-hydroxy-naphthalen-2-yl)methylene)benzohydrazide]	10.4 µM
COc1ccc(O)c(/C=N/NC(=O)c2cc(C)ccc2O)c1 [Compound 73, 2-hydroxy-N′-(2-hydroxy-5-methoxy-benzylidene)-5-methyl-benzohydrazide]	10.4 µM
COc1ccc(O)c(/C=N/NC(=O)c2cc(F)ccc2O)c1 [Compound 75, 5-fluoro-2-hydroxy-N′-(2-hydroxy-5-methoxy-benzylidene)benzohydrazide]	10.9 µM
COc1ccc(C(=O)N/N=C/c2cc(OC)ccc2O)c(O)c1 [Compound 76, 2-hydroxy-N′-(2-hydroxy-5-methoxy-benzylidene)-4-methoxy-benzohydrazide]	11.1 µM
CCOC(=O)c1c(C)oc2cc(Br)c(O)c(/C=N/NC(=O)c3ccccc3O)c12 [Compound 77, ethyl 6-bromo-5-hydroxy-4-((2-(2-hydroxybenzoyl)hydrazono)methyl)-2-methyl-benzofuran-3-carboxylate]	11.6 µM
COc1ccc(O)c(/C=N/NC(=O)c2cc(-c3ccc4c(c3)OCO4)n[nH]2)c1 [Compound 78, 3-(benzo[d][1,3]dioxol-5-yl)-N′-(2-hydroxy-5-methoxybenzylidene)-1H-pyrazole-5-carbohydrazide]	11.6 µM
C/C(=N\NC(=O)c1ccccc1O)c1ccc(C)cc1 [Compound 79, 2-hydroxy-N′-(1-p-tolylethylidene) benzohydrazide]	13.3 µM
COc1ccc(/C=N/NC(=O)c2ccccc2O)c(O)c1 [Compound 81, 2-hydroxy-N′-(2-hydroxy-4-methoxy-benzylidene)benzohydrazide]	15 µM
COc1ccc(O)c(/C=N/NC(=O)c2ccccc2O)c1 [Compound 83, 2-hydroxy-N′-(2-hydroxy-5-methoxy-benzylidene)benzohydrazide]	15.4 µM
COc1ccc(O)c(/C=N/NC(=O)c2cc(Cl)ccc2O)c1 [Compound 84, 5-chloro-2-hydroxy-N′-(2-hydroxy-5-methoxy-benzylidene)benzohydrazide]	15.5 µM
CCOc1ccc(O)c(/C=N/NC(=O)c2ccccc2O)c1 [Compound 85, N′-(5-ethoxy-2-hydroxy-benzylidene)-2-hydroxy-benzohydrazide]	16 µM
O=C(N/N=C/c1oc2ccc([N+](=O)[O-])cc2c1O)c1ccccc1O [Compound 88, 2-hydroxy-N′-((3-hydroxy-5-nitro-benzofuran-2-yl)methylene) benzohydrazide]	20.4 µM
O=C(N/N=C/c1ccc(O)cc1O)c1ccccc1O [Compound 90, N′-(2,4-dihydroxybenzylidene)-2-hydroxy-benzohydrazide]	21.4 µM
COc1cc(Cl)cc(/C=N/NC(=O)c2ccccc2O)c1O [Compound 91, N′-(5-chloro-2-hydroxy-3-methoxy-benzylidene)-2-hydroxy-benzohydrazide]	22.8 µM
Cc1csc(C(=O)N/N=C/c2cc(Cl)ccc2O)c1Cl [Compound 92, 3-chloro-N′-(5-chloro-2-hydroxybenzylidene)-4-methylthiophene-2-carbohydrazide]	23.7 µM
COc1cccc(/C=N/NC(=O)c2ccccc2O)c1O [Compound 94, 2-hydroxy-N′-(2-hydroxy-3-methoxybenzylidene)benzohydrazide]	24.9 µM
COc1ccc(O)c(/C=N/NC(=O)c2c(O)cccc2F)c1 [Compound 95, 2-fluoro-6-hydroxy-N′-(2-hydroxy-5-methoxybenzylidene)benzohydrazide]	26.2 µM
Cc1cccc(/C=N/NC(=O)c2ccccc2O)c1O [Compound 96, 2-hydroxy-N′-(2-hydroxy-3-methylbenzylidene)benzohydrazide]	28.6 µM
Cc1cc(C(=O)N/N=C/c2c(O)ccc3ccccc23)[nH]n1 [Compound 97, N′-((2-hydroxynaphthalen-1-yl)methylene)-3-methyl-1H-pyrazole-5-carbohydrazide]	30.6 µM
COc1ccc(O)c(/C=N/NC(=O)c2cc(Br)ccc2O)c1 [Compound 98, 5-bromo-2-hydroxy-N′-(2-hydroxy-5-methoxybenzylidene)benzohydrazide]	31.9 µM
COc1ccc(O)c(/C=N/NC(=O)c2ccccc2NS(C)(=O)=O)c1 [Compound 100, N-(2-(2-(2-hydroxy-5-methoxybenzylidene)hydrazinecarbonyl)phenyl)methanesulfonamide]	33.2 µM
O=C(N/N=C/c1cc(F)cc(F)c1O)c1ccccc1O [Compound 101, N′-(3,5-difluoro-2-hydroxybenzylidene)-2-hydroxybenzohydrazide]	33.4 µM
O=C(N/N=C(/c1cc(Cl)ccc1O)C(F)(F)F)c1ccccc1O [Compound 102, N′-(1-(5-chloro-2-hydroxyphenyl)-2,2,2-trifluoroethylidene)-2-hydroxybenzohydrazide]	34 µM
COc1ccc(O)c(/C=N/NC(=O)c2cc([N+](=O)[O-])ccc2O)c1 [Compound 104, 2-hydroxy-N′-(2-hydroxy-5-methoxybenzylidene)-5-nitrobenzohydrazide]	35.1 µM
O=C(N/N=C/c1cc(Cl)cc(Br)c1O)c1ccccc1O [Compound 108, N′-(3-bromo-5-chloro-2-hydroxybenzylidene)-2-hydroxybenzohydrazide]	41.7 µM
COc1cc(Br)c(O)c(/C=N/NC(=O)c2ccccc2O)c1 [Compound 109, N′-(3-bromo-2-hydroxy-5-methoxybenzylidene)-2-hydroxybenzohydrazide]	42 µM
COc1ccc(O)c(/C=N/NC(=O)c2ccccc2N)c1 [Compound 110, 2-amino-N′-(2-hydroxy-5-methoxybenzylidene)benzohydrazide]	42.3 µM
Cc1ccc(/C=N/NC(=O)c2ccc3c(c2)OCO3)c(O)c1 [Compound 116, N′-(2-hydroxy-4-methylbenzylidene)benzo[d][1,3]dioxole-5-carbohydrazide]	50 µM

The remaining compounds from weak to strong by IC50, led by results:

IC50	SMILES
47.6 µM	O=C(N/N=C/c1c(O)ccc2ccccc12)c1ccc(O)cc1O [Compound 115, 2,4-dihydroxy-N′-((2-hydroxynaphthalen-1-yl)methylene)benzohydrazide]
46.7 µM	O=C(N/N=C/c1cc(Cl)ccc1NS(=O)(=O)c1ccc(F)cc1F)c1ccccc1O [Compound 114, N-(4-chloro-2-((2-(2-hydroxybenzoyl)hydrazono)methyl)phenyl)-2,4-difluorobenzenesulfonamide]
45.4 µM	C/C(=N\NC(=O)c1cc(C)n[nH]1)c1ccccc1O [Compound 112, N′-(1-(2-hydroxyphenyl)ethylidene)-3-methyl-1H-pyrazole-5-carbohydrazide]
42.9 µM	Cc1nnsc1C(=O)N/N=C/c1cc(Cl)ccc1O [Compound 111, N′-(5-chloro-2-hydroxybenzylidene)-4-methyl-1,2,3-thiadiazole-5-carbohydrazide]
40.1 µM	COc1ccc(O)c(/C=N/NC(=O)c2cc(-c3ccc(Cl)s3)n[nH]2)c1 [Compound 107, 3-(5-chlorothiophen-2-yl)-N′-(2-hydroxy-5-methoxybenzylidene)-1H-pyrazole-5-carbohydrazide]
39.2 µM	CCOc1cccc(/C=N/NC(=O)c2ccccc2O)c1O [Compound 106, N′-(3-ethoxy-2-hydroxybenzylidene)-2-hydroxybenzohydrazide]
36.5 µM	COc1ccc(O)c(/C=N/NC(=O)c2cccc3cccc(O)c23)c1 [Compound 105, 8-hydroxy-N′-(2-hydroxy-5-methoxybenzylidene)-1-naphthohydrazide]
34.5 µM	O=C(N/N=C/c1c(O)ccc2ccccc12)c1cc(C2CC2)n[nH]1 [Compound 103, 3-cyclopropyl-N′-((2-hydroxynaphthalen-1-yl)methylene)-1H-pyrazole-5-carbohydrazide]
32.5 µM	O=C(N/N=C/c1cc([N+](=O)[O-])ccc1O)c1ccccc1O [Compound 99, 2-hydroxy-N′-(2-hydroxy-5-nitrobenzylidene)benzohydrazide]
23.9 µM	Nc1ccc(Cl)cc1/C=N/NC(=O)c1ccccc1N [Compound 93, 2-amino-N′-(2-amino-5-chlorobenzylidene)benzohydrazide]
18.3 µM	O=C(N/N=C/c1ccc(N2CCOCC2)cc1O)c1ccccc1O [Compound 87, 2-hydroxy-N′-(2-hydroxy-4-morpholino-benzylidene)-benzohydrazide]
17.4 µM	O=C(N/N=C/c1cccc(O)c1O)c1ccccc1O [Compound 86, N′-(2,3-dihydroxy-benzylidene)-2-hydroxy-benzohydrazide]
15.1 µM	COc1ccc(O)c(/C=N/NC(=O)c2cc(OC)ccc2O)c1 [Compound 82, 2-hydroxy-N′-(2-hydroxy-5-methoxy-benzylidene)-5-methoxy-benzohydrazide]
14.4 µM	CCN(CC)c1ccc(/C=N/NC(=O)c2ccccc2O)c(O)c1 [Compound 80, N'-(4-(diethylamino)-2-hydroxy-benzylidene)-2-hydroxy-benzohydrazide]
10.9 µM	O=C(N/N=C/c1cccc(F)c1O)c1ccccc1O [Compound 74, N′-(3-fluoro-2-hydroxy-benzylidene)-2-hydroxy-benzohydrazide]
